Earlier results on 27 compounds are cited in patent publication US10039772B2, “Methods and compositions for treating alcohol use disorders” (priority 2015, dated 2018).

For the first data set, the system named is 11β-HSD1, 11β-HSD2. The note with it: 11β-HSD isozyme specificity per cited reference; cited from earlier work.
`CN(C(=O)N1CCC(CN2C(=O)Nc3ccc(Cl)cc3S2(=O)=O)CC1)C1CCCCCC1` [Number 86]: the Specificity was 11β- HSD1 > 2.

In the case of `Cc1c(Cl)cccc1S(=O)(=O)N1CCC[C@@H](C(=O)N[C@H]2C[C@@H]3CC[C@@]2(C)C3(C)C)C1` [Number 87], the Specificity is 11β- HSD1 > 2.

Regarding `C[C@]1(C(=O)N[C@H]2C3CC4CC2C[C@@](O)(C4)C3)CCCN1S(=O)(=O)c1cccc2cccnc12` [Number 90], the Specificity is reported as 11β- HSD1 > 2.

With `O=C(CN1C(C(=O)c2ccccc2)=C(O)c2ccccc2S1(=O)=O)c1ccccc1` [Number 91], the Specificity is on record as 11β- HSD1 > 2.

As to `O=C(O)CC1(CC(=O)NCc2ccc(F)cc2Cl)CCCC1` [Number 93], the Specificity is 11β- HSD1 > 2.

For the compound `CC(C)(CC(=O)NC1CC1)CC(=O)N[C@H]1C2CC3CC1C[C@@](O)(C3)C2` [Number 94], the Specificity was 11β- HSD1 > 2.

Take `O=C1CC2(CCN(C(=O)C3(c4ccccc4)CC3)CC2)Oc2ccc(F)cc21` [Number 95]: the Specificity was 11β- HSD1 > 2.

Take `O=C(N1CCC2(CCCCC2)C1)C1(c2ccccc2)CC1` [Number 96]: the Specificity is reported as 11β- HSD1 > 2.

As to `COc1ccc(C(=O)N2CCC(c3c[nH]c4ccccc34)C2)c(C)c1` (stereo not drawn) [Number 97], the Specificity is listed as 11β- HSD1 > 2.

Take `CC(C)(C(=O)N1CCC(c2c[nH]c3ncccc23)C1)c1ccc(Cl)cc1` (stereo not drawn) [Number 98]: the Specificity is 11β- HSD1 > 2.

In the case of `O=C(N1CCC(c2c[nH]cn2)CC1)N1CCCc2ccccc21` [Number 99], the Specificity is recorded as 11β- HSD1 > 2.

Turning to `COc1ccc(-c2cnc(N3CCN(C(=O)N4CCC(c5cn[nH]c5)C4)c4ccccc43)nc2)cc1` (stereo not drawn) [Number 100], the Specificity is listed as 11β- HSD1 > 2.

In the case of `CC(C)(C)N1CCN(c2ccc(N3CCN(C(=O)N[C@H]4C5CC6CC4C[C@@](C(N)=O)(C6)C5)c4ccccc43)nc2)CC1` [Number 101], the Specificity is on record as 11β- HSD1 > 2.

As for `COc1cc(C(=O)Nc2ccc(C(=O)N3CCCCC3)c(O)c2)cc(OC)c1OC` [Number 105], the Specificity was 11β- HSD1 > 2.

With `O=C(Nc1ccc(C(=O)N2CCC[C@H]3CCCC[C@@H]32)c2ccccc12)c1ccc(Cl)cc1Cl` [Number 106], the Specificity is reported as 11β- HSD1 > 2.

Turning to `COc1ccc(C(=O)N2CCCC(c3ccccc3)CC2)cc1` (stereo not drawn) [Number 107], the Specificity was 11β- HSD1 > 2.

Turning to `COC1(C)CCCN(S(=O)(=O)c2ccc(C(C)(C)C)cc2)CC1` (stereo not drawn) [Number 108], the Specificity is reported as 11β- HSD1 > 2.

Turning to `CC(C)(C)n1ncc2c1CCCN([C@H]1C3CC4CC1C[C@@](O)(C4)C3)C2=O` [Number 109], the Specificity is recorded as 11β- HSD1 > 2.

As for `CC1(C)CCN([C@H]2C3CC4CC2C[C@@](O)(C4)C3)C(=O)c2cnn(-c3ccc(Cl)cc3)c21` [Number 110], the Specificity was 11β- HSD1 > 2.

`CCN1CCN(C(=O)C23CC4CC(C2)CC(c2ccc(C)cc2)(C4)C3)CC1` [Number 111]: the Specificity is listed as 11β- HSD1 > 2.

For `Cc1ccc(-n2nnnc2SCC(=O)C(C)(C)C)c(C)c1` [Number 112], the Specificity is listed as 11β- HSD1 > 2.

For the compound `O=C(CSc1nnnn1-c1cccc(Cl)c1)c1ccccc1` [Number 113], the Specificity was 11β- HSD1 > 2.

Staying with this data set, now noted: cited from earlier work.
`Cc1c(Cl)cccc1S(=O)(=O)N1CCCC[C@@H]1C(=O)N[C@H]1C2CC3CC1C[C@](O)(C3)C2` [Number 88]: the Specificity is listed as 11β- HSD1 > 2.

`Cc1c(Cl)cccc1S(=O)(=O)N1CCCC[C@@H]1C(=O)N[C@H]1C2CC3CC1C[C@](O)(C3)C2` [Number 89]: the Specificity is listed as 11β- HSD1 > 2.

Take `O=S1(=O)N=C(NC2CCCCC2)O[C@H]2CCCC[C@H]21` [Number 102]: the Specificity is 11β- HSD1 > 2.

Consider `CC1(C)OC(N[C@@H](CCO)c2ccc(F)cc2)=NS(=O)(=O)C1(C)C` [Number 103], for which the Specificity was 11β- HSD1 > 2.

In the case of `O=C(Nc1cccc(C(=O)N2CCC[C@H]3CCCC[C@@H]32)c1)c1ccccc1` [Number 104], the Specificity is recorded as 11β- HSD1 > 2.
